In ChEMBL document CHEMBL5113491, “Discovery of N-benzylarylamide derivatives as novel tubulin polymerization inhibitors capable of activating the Hippo pathway” (Eur J Med Chem, 2022):
Calls of active or inactive are those of the source. The rule behind the calls is not given here.

Tests used:
MGC-803 [1] = experiment: Induction of apoptosis in human MGC-803 cells assessed as decrease in c-IAP1 protein expression measured after 48 hrs by Western blot analysis; type: functional, cell-based; conditions: dose 15-45 nmol/L, DDE = dose-dependent effect
MGC-803 [2] = experiment: Induction of cell cycle arrest in human MGC-803 cells assessed as increase in G2/M phase cells measured after 24 hrs by flow cytometry; type: functional, cell-based; conditions: dose 15-45 nmol/L, DDE = dose-dependent effect
Tubulin (Homo sapiens) [3] = target: T1, Tubulin (Homo sapiens) (UniProt P68371+Q9H4B7+P0DPH7+P68366+Q13509+Q71U36+P04350+Q3ZCM7+P07437+P68363+Q9BQE3+Q6PEY2+Q13885+Q9BVA1+Q9BUF5); experiment: Induction of microtubule disruption in human SGC-7901 cells measured after 48 hrs by DAPI staining based immunofluorescence assay; type: cell-based; conditions: dose 15-45 nmol/L, DDE = dose-dependent effect
GES1 = experiment: Cytotoxicity against human GES1 cells assessed as reduction in cell viability at 5 to 40 nM measured after 48 hrs by MTT assay; type: toxicity, cell-based; conditions: ges1, 48 h, 0.04 µM, dose 5-40 nM
SGC-7901 [4] = experiment: Induction of cell apoptosis in human SGC-7901 cells assessed as increase in apoptotic cells measured after 48 hrs by Annexin V/PI staining based flow cytometric analysis; type: functional; conditions: dose 15-45 nmol/L, DDE = dose-dependent effect
SGC-7901 [5] = experiment: Induction of apoptosis in human SGC-7901 cells assessed as decrease in Mcl-1 protein expression measured after 48 hrs by Western blot analysis; type: functional, cell-based; conditions: dose 15-45 nmol/L, DDE = dose-dependent effect
SGC-7901 [6] = experiment: Induction of G2/M phase cell cycle arrest in human SGC-7901 cells assessed as decrease in cyclin A2 expression at 15 to 45 nmol/L measured after 48 hrs by Western blot analysis; type: functional, cell-based; conditions: dose 15-45 nmol/L
MGC-803 [7] = experiment: Induction of morphological changes in human MGC-803 cells assessed as decrease in density at 15 to 45 nmol/L measured after 48 hrs by bright field microscopic analysis; type: functional, cell-based; conditions: dose 15-45 nmol/L
SGC-7901 [8] = experiment: Induction of morphological changes in human SGC-7901 cells assessed as change in concentration of nuclei at 15 to 45 nmol/L measured after 48 hrs by DAPI staining based microscopic analysis; type: functional, cell-based; conditions: dose 15-45 nmol/L
SGC-7901 [9] = experiment: Induction of morphological changes in human SGC-7901 cells assessed as decrease in density at 15 to 45 nmol/L measured after 48 hrs by bright field microscopic analysis; type: functional, cell-based; conditions: dose 15-45 nmol/L
MGC-803 [10] = experiment: Induction of apoptosis in human MGC-803 cells assessed as increase in cleaved caspase 9 expression at 15 to 45 nmol/L measured after 48 hrs by Western blot analysis; type: functional, cell-based; conditions: dose 15-45 nmol/L
SGC-7901 [11] = experiment: Induction of G2/M phase cell cycle arrest in human SGC-7901 cells assessed as decrease in cyclin B1 expression at 15 to 45 nmol/L measured after 48 hrs by Western blot analysis; type: functional, cell-based; conditions: dose 15-45 nmol/L
SGC-7901 [12] = experiment: Induction of cell cycle arrest in human SGC-7901 cells assessed as increase in G2/M phase cells measured after 24 hrs by flow cytometry; type: functional, cell-based; conditions: dose 15-45 nmol/L, DDE = dose-dependent effect
SGC-7901 [13] = experiment: Induction of morphological changes in human SGC-7901 cells assessed as change in concentration of nuclei at 15 to 45 nmol/L measured after 48 hrs by calcein-AM/PI staining based microscopic analysis; type: functional, cell-based; conditions: dose 15-45 nmol/L
TE-1 = experiment: Antiproliferative activity against human TE-1 cells assessed as inhibition of cell growth measured after 48 hrs by MTT assay; type: functional, cell-based; conditions: TE-1, 48 h
SGC-7901 [14] = experiment: Induction of G2/M phase cell cycle arrest in human SGC-7901 cells assessed as decrease in cyclin A1 expression at 15 to 45 nmol/L measured after 48 hrs by Western blot analysis; type: functional, cell-based; conditions: dose 15-45 nmol/L
SGC-7901 [15] = experiment: Downregulation of YAP protein expression in human SGC-7901 cells measured after 48 hrs by Western blot analysis; type: functional, cell-based; conditions: dose 15-45 nmol/L, DDE = dose-dependent effect
MGC-803 [16] = experiment: Induction of G2/M phase cell cycle arrest in human MGC-803 cells assessed as decrease in p-cdc2 (T161) expression at 15 to 45 nmol/L measured after 48 hrs by Western blot analysis; type: functional, cell-based; conditions: dose 15-45 nmol/L
MGC-803 [17] = experiment: Induction of morphological changes in human MGC-803 cells assessed as cell fragmentation at 15 to 45 nmol/L measured after 48 hrs by bright field microscopic analysis; type: functional, cell-based; conditions: dose 15-45 nmol/L
SGC-7901 [18] = experiment: Induction of apoptosis in human SGC-7901 cells assessed as decrease in c-IAP1 protein expression measured after 48 hrs by Western blot analysis; type: functional, cell-based; conditions: dose 15-45 nmol/L, DDE = dose-dependent effect
SGC-7901 [19] = experiment: Downregulation of Axl protein expression in human SGC-7901 cells at 15 to 45 nmol/L measured after 48 hrs by Western blot analysis; type: functional, cell-based; conditions: dose 15-45 nmol/L
MCF7 = experiment: Antiproliferative activity against human MCF7 cells assessed as inhibition of cell growth measured after 48 hrs by MTT assay; type: functional, cell-based; conditions: MCF7, 48 h
MGC-803 [20] = experiment: Induction of morphological changes in human MGC-803 cells assessed as change in concentration of nuclei at 15 to 45 nmol/L measured after 48 hrs by DAPI staining based microscopic analysis; type: functional, cell-based; conditions: dose 15-45 nmol/L
[21] = Cytotoxicity against human GES1 cells assessed as reduction in cell viability measured after 48 hrs by MTT assay; type: toxicity, cell-based
Tubulin (Homo sapiens) [22] = target: T1, Tubulin (Homo sapiens); experiment: Induction of microtubule disruption in human SGC-7901 cells at 25 nmol/L measured after 48 hrs by DAPI staining based immunofluorescence assay; type: cell-based
MGC-803 [23] = experiment: Induction of G2/M phase cell cycle arrest in human MGC-803 cells assessed as increase in p-Histone H3 expression at 15 to 45 nmol/L measured after 48 hrs by Western blot analysis; type: functional, cell-based; conditions: dose 15-45 nmol/L
Sus scrofa = species on record: Sus scrofa; experiment: (§1) Inhibition of porcine brain microtubule polymerization measured after 1 hrs by fluorescence based assay; conditions: DDE = dose-dependent effect
[24] = as §1; set-up: species or system Sus scrofa
MGC-803 [25] = experiment: Induction of cell apoptosis in human MGC-803 cells assessed as increase in apoptotic cells measured after 48 hrs by Annexin V/PI staining based flow cytometric analysis; type: functional; conditions: dose 15-45 nmol/L, DDE = dose-dependent effect
MGC-803 [26] = experiment: Inhibition of colony formation in human MGC-803 cells measured after 7 days; type: functional, cell-based; conditions: dose 6-30 nmol/L, time 7.0 day, DDE = dose-dependent effect
SGC-7901 [27] = experiment: Induction of apoptosis in human SGC-7901 cells assessed as increase in cleaved PARP expression at 15 to 45 nmol/L measured after 48 hrs by Western blot analysis; type: functional, cell-based; conditions: dose 15-45 nmol/L
Huh-7 = experiment: Antiproliferative activity against human Huh-7 cells assessed as inhibition of cell growth measured after 48 hrs by MTT assay; type: functional, cell-based; conditions: Huh-7, 48 h
NCI-H520 = experiment: Antiproliferative activity against human NCI-H520 cells assessed as inhibition of cell growth measured after 48 hrs by MTT assay; type: functional, cell-based; conditions: NCI-H520, 48 h
PC-3 = experiment: Antiproliferative activity against human PC-3 cells assessed as inhibition of cell growth measured after 48 hrs by MTT assay; type: functional, cell-based; conditions: PC-3, 48 h
MGC-803 [28] = experiment: Activation of LATS in human MGC-803 cells assessed as increase in LATS phosphorylation measured after 48 hrs by Western blot analysis; type: cell-based; conditions: filed as activator, dose 15-45 nmol/L, DDE = dose-dependent effect
SGC-7901 [29] = experiment: Activation of LATS in human SGC-7901 cells assessed as increase in LATS phosphorylation measured after 48 hrs by Western blot analysis; type: cell-based; conditions: filed as activator, dose 15-45 nmol/L, DDE = dose-dependent effect
SGC-7901 [30] = experiment: Induction of morphological changes in human SGC-7901 cells assessed as cell fragmentation at 15 to 45 nmol/L measured after 48 hrs by bright field microscopic analysis; type: functional, cell-based; conditions: dose 15-45 nmol/L
SGC-7901 [31] = experiment: Induction of apoptosis in human SGC-7901 cells assessed as decrease in Bcl-xl protein expression measured after 48 hrs by Western blot analysis; type: functional, cell-based; conditions: dose 15-45 nmol/L, DDE = dose-dependent effect

Activity (Tubulin (Homo sapiens) [3]): Dde
IC50 (MCF7): 67 nM
Activity (Tubulin (Homo sapiens) [22]): Active
inhibition (Sus scrofa): Dde
IC50 [24]: 920 nM
IC50 (Huh-7): 60 nM
IC50 (NCI-H520): 52 nM
IC50 (PC-3): 55 nM
SMILES: C/C=C/C(=O)N(Cc1ccc(OC)c(O)c1)c1cc(OC)c(OC)c(OC)c1
Activity (MGC-803 [1]): Dde
Activity (MGC-803 [2]): Dde
Activity (GES1): Non-Toxic
Activity (SGC-7901 [4]): Dde
Activity (SGC-7901 [5]): Dde
Activity (SGC-7901 [6]): Active
Activity (MGC-803 [7]): Active
Activity (SGC-7901 [8]): Active
Activity (SGC-7901 [9]): Active
Activity (MGC-803 [10]): Active
Activity (SGC-7901 [11]): Active
Activity (SGC-7901 [12]): Dde
Activity (SGC-7901 [13]): Active
IC50 (TE-1): 94 nM
Activity (SGC-7901 [14]): Active
Activity (SGC-7901 [15]): Dde
Activity (MGC-803 [16]): Active
Activity (MGC-803 [17]): Active
Activity (SGC-7901 [18]): Dde
Activity (SGC-7901 [19]): Active
Activity (MGC-803 [20]): Active
IC50 at 48 h [21]: 768 nM
Activity (MGC-803 [23]): Active
Activity (MGC-803 [25]): Dde
inhibition (MGC-803 [26]): Dde
Activity (SGC-7901 [27]): Active
Activity (MGC-803 [28]): Dde
Activity (SGC-7901 [29]): Dde
Activity (SGC-7901 [30]): Active
Activity (SGC-7901 [31]): Dde
